Source: publication PMC10959927, “Platinum iodido drugs show potential anti-tumor activity, affecting cancer cell metabolism and inducing ROS and senescence in gastrointestinal cancer cells” (Communications Biology, 2024)
“And” between values parts separate entries of the source, which are not always exact repeats. Equal values may be shown once. Read-outs that look alike come from different tables or passages of the source.

Columns and labels:
AGS cells [1] = experiment: Cell viability, crystal violet staining; settings: read-out: IC50 concentration (± SD) at 48 h, AGS, 48 h
Description: (§1) Cell viability was assessed using a crystal violet-based staining method. […] The cells (2 × 10^5) were seeded in 24-multiwell dishes in 0.5 mL of complete medium and incubated overnight. […] After 48 h, cells were fixed with 1% glutaraldehyde (20–30 min), washed with distilled water, and stained with 0.1% crystal violet. […] IC50 were calculated by using GraphPad Prism (version 8.0). Nonlinear regression was used to fit the data to the log (inhibitor) versus response (variable slope).

MKN45 cells [2] = experiment: Cell viability, crystal violet staining; settings: read-out: IC50 concentration (± SD) at 48 h, 48 h
Description: as §1

PANC1 cells [3] = experiment: Cell viability, crystal violet staining; settings: read-out: IC50 concentration (± SD) at 48 h, 48 h
Description: as §1

CC2509 fibroblasts = experiment: Cell viability, crystal violet staining, non-tumoral cells; settings: read-out: IC50 concentration (± SD) at 48 h in non-tumoral cell lines; CC2509, 48 h
Description: as §1

HPDE cells = experiment: as above; settings: read-out: IC50 concentration (± SD) at 48 h in non-tumoral cell lines
Description: as §1

AGS cells [4] = experiment: SA-β-Gal activity, CellEvent Senescence Green flow cytometry;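 further: IC50 concentration of each compound relative to untreated control set as 1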; type: cell-based, human; settings: Fig. 3A, replicate values
Description: (§2) SA-β-Gal activity was measured following two different approaches. (i) AGS, MKN45 and PANC1 cells (5 × 10^4) were seeded in 24-multiwell dishes and incubated overnight. […] For flow cytometry cell senescence detection, cells were tripsinized, fixed for 15 min with PFA 4% and stained with the CellEvent Senescense Green Flow Cytometry Assay Kit (C10840, Invitrogen) according to manufacturer’s instructions. CellEvent Senescense Green Probe was used at a 1:500 dilution and fluorescence was detected using the filter (Ex488nm/Em530/30) BL1 with a 4-laser Attune NxT Acoustic Cytometer (Thermo Fisher Scientific). […] After 3 h, the treatments were removed, new supplemented medium was added, and cells were incubated for an additional 24 h. Finally, SA-β-Gal staining was performed using the Senescence Cells Histochemical Staining Kit (CS0030-1KT) according to the manufacturer’s instructions.

MKN45 cells [5] = experiment: as above; type: cell-based, human; settings: Fig. 3A, replicate values
Description: as §2

PANC1 cells [6] = experiment: as above; type: cell-based, human; settings: Fig. 3A, replicate values
Description: as §2

AGS cells [7] = experiment: SA-β-Gal histochemical staining; type: cell-based, human; settings: Fig. S4A
Description: as §2

AGS cells [8] = experiment: Western blotting (p-p53, p-JNK, p-p38, p-ERK, p-CHK1/2, Mcl1, BID, BAX); type: cell-based, human; settings: for fold change p-ERK vs Tubulin / fold change p-JNK vs Tubulin / fold change p-p38 vs Tubulin / fold change p-p53 vs Tubulin: Fig. 4A, replicate values; for fold change BAX vs Tubulin / fold change MCL1 vs Tubulin / fold change BID full length vs Tubulin: Fig. S3B
Description: (§3) Total protein extracts were obtained by adding the lysis buffer: 25 mM HEPES pH 7.5, 0.3 M NaCl, 1.5 mM MgCl2, 0.2 mM EDTA, 0.5 mM DTT, 20 mM β-glicerophosphate, 0.1 mM Na3VO4, 0.1% triton X-100; in the presence of protease inhibitors. Twenty μg of protein per sample were loaded and resolved using 8%, 10% or 15% SDS-PAGE polyacrylamide gels, and then transferred onto PVDF membranes, followed by immunodetection using appropriate antibodies, purchased from Santa Cruz Technology: Mcl-1 (sc-819), Cell Signaling Technology: BIM, BID, BAX (#9942), p-p38 (1:2000, #4631), p-p53^ser15 (#9284), p-ERK1/2 (1:2000, #9106), p-CHK1^ser345 and p-CHK2^ser19 (#9931), Promega Corporation-Spain: p-JNK (#V7932), or Sigma-Aldrich: α-tubulin (1:10000, #TP026). Unless indicated, all antibodies were diluted 1:1000. Secondary antibodies conjugated with horseradish peroxidase were purchased from BioRad, and chemiluminescence detection was performed using ECL (Santa Cruz Biotechnology).

PANC1 cells [9] = experiment: as above; type: cell-based, human; settings: for fold change p-ERK vs Tubulin / fold change p-JNK vs Tubulin / fold change p-p38 vs Tubulin / fold change p-p53 vs Tubulin: PANC1, Fig. 4A, replicate values
Description: as §3

[NH2][Pt]([NH2])([Cl])[Cl] [CDDP, cisplatin, reference compound]
IC50 (AGS cells [1]; NAC (+) 0.5 mM): 22.7 ± 4.03 µM | IC50 (AGS cells [1]; NAC (-)): 26.7 ± 2.21 µM | IC50 (MKN45 cells [2]; MKN45, NAC (+) 0.5 mM): 10.2 ± 1.56 µM | IC50 (MKN45 cells [2]; MKN45, NAC (-)): 10 µM and 9.45 µM | IC50 (PANC1 cells [3]; PANC1, NAC (+) 0.5 mM): 9.46 ± 1.29 µM | IC50 (PANC1 cells [3]; PANC1, NAC (-)): 10 µM and 12.3 µM | IC50 (CC2509 fibroblasts): 25 µM and 23.8 µM | IC50 (HPDE cells): 0.45 ± 0.05 µM | Fold change % Senescence (AGS cells [4]): 1.16 fold change and 1.15 fold change and 1.2 fold change | Fold change % Senescence (MKN45 cells [5]): 1.67 fold change and 1.92 fold change and 1.87 fold change | Fold change % Senescence (PANC1 cells [6]): 1.64 fold change and 1.11 fold change and 1.53 fold change | Fold change % Senescence (AGS cells [7]): 58.33% and 50% and 67.21% | phosphorylation of CHK1/2 (DDR pathway, western blot) (AGS cells [8]; IC50, 1, 3, 6 or 24 h): induced the phosphorylation | fold change p-ERK vs Tubulin (AGS cells [8]; Time 1 h): 0.9528 fold change and 0.9782 fold change and 0.8139 fold change | fold change p-JNK vs Tubulin (AGS cells [8]; Time 1 h): 0.895 fold change and 1.558 fold change and 0.8178 fold change | fold change p-p38 vs Tubulin (AGS cells [8]; Time 1 h): 1.508 fold change and 0.8638 fold change and 1.487 fold change | fold change p-p53 vs Tubulin (AGS cells [8]; Time 1 h): 0.9865 fold change and 0.9436 fold change and 1.458 fold change | fold change p-ERK vs Tubulin (AGS cells [8]; Time 3 h): 1.409 fold change and 0.9423 fold change and 1.158 fold change | fold change p-JNK vs Tubulin (AGS cells [8]; Time 3 h): 1.014 fold change and 1.185 fold change and 0.899 fold change | fold change p-p38 vs Tubulin (AGS cells [8]; Time 3 h): 1.39 fold change and 0.6346 fold change and 1.266 fold change | fold change p-p53 vs Tubulin (AGS cells [8]; Time 3 h): 0.5865 fold change and 1.299 fold change and 1.138 fold change | fold change p-ERK vs Tubulin (AGS cells [8]; Time 6 h): 2.441 fold change and 1.161 fold change and 1.546 fold change | fold change p-JNK vs Tubulin (AGS cells [8]; Time 6 h): 1.257 fold change and 1.756 fold change and 0.7623 fold change | fold change p-p38 vs Tubulin (AGS cells [8]; Time 6 h): 0.9545 fold change and 1.021 fold change and 0.8104 fold change | fold change p-p53 vs Tubulin (AGS cells [8]; Time 6 h): 1.308 fold change and 1.189 fold change and 1.275 fold change | fold change p-ERK vs Tubulin (AGS cells [8]; Time 24 h): 2.387 fold change and 2.45 fold change and 1.9989 fold change | fold change p-JNK vs Tubulin (AGS cells [8]; Time 24 h): 1.302 fold change and 2.33 fold change and 0.8503 fold change | fold change p-p38 vs Tubulin (AGS cells [8]; Time 24 h): 0.6414 fold change and 1.823 fold change and 1.149 fold change | fold change p-p53 vs Tubulin (AGS cells [8]; Time 24 h): 3.183 fold change and 2.955 fold change and 1.906 fold change | fold change BAX vs Tubulin (AGS cells [8]; time 1 h): 1.198 fold change and 1.173 fold change and 0.877 fold change | fold change MCL1 vs Tubulin (AGS cells [8]; time 1 h): 1.103 fold change and 0.99 fold change and 0.761 fold change | fold change BAX vs Tubulin (AGS cells [8]; time 3 h): 0.789 fold change and 1.149 fold change and 1.345 fold change | fold change MCL1 vs Tubulin (AGS cells [8]; time 3 h): 0.575 fold change and 0.967 fold change and 0.513 fold change | fold change BAX vs Tubulin (AGS cells [8]; time 6 h): 1.098 fold change and 1.54 fold change and 2.188 fold change | fold change BID full length vs Tubulin (AGS cells [8]; time 6 h): 0.649 fold change and 1.175 fold change and 0.953 fold change | fold change MCL1 vs Tubulin (AGS cells [8]; time 6 h): 1.101 fold change and 0.938 fold change and 0.603 fold change | fold change BID full length vs Tubulin (AGS cells [8]; time 24 h): 1.562 fold change and 1.807 fold change and 1.427 fold change | fold change MCL1 vs Tubulin (AGS cells [8]; time 24 h): 0.943 fold change and 0.926 fold change and 0.668 fold change | phosphorylation of CHK1/2 (DDR pathway, western blot) (PANC1 cells [9]; PANC1, IC50, 1, 3, 6 or 24 h): induced the phosphorylation | fold change BAX vs Tubulin (PANC1 cells [9]; PANC1, time 1 h, Fig. S3B): 1.6915 fold change and 0.9781 fold change and 1.332 fold change | fold change MCL1 vs Tubulin (PANC1 cells [9]; PANC1, time 1 h, Fig. S3B): 0.9288 fold change and 1.014 fold change and 1.02 fold change | fold change BAX vs Tubulin (PANC1 cells [9]; PANC1, time 3 h, Fig. S3B): 1.86 fold change and 1.118 fold change and 1.518 fold change | fold change MCL1 vs Tubulin (PANC1 cells [9]; PANC1, time 3 h, Fig. S3B): 1.904 fold change and 2.322 fold change and 1.672 fold change | fold change BAX vs Tubulin (PANC1 cells [9]; PANC1, time 6 h, Fig. S3B): 1.424 fold change and 1.3785 fold change and 1.29 fold change | fold change MCL1 vs Tubulin (PANC1 cells [9]; PANC1, time 6 h, Fig. S3B): 1.358 fold change and 1.631 fold change and 1.901 fold change | fold change BAX vs Tubulin (PANC1 cells [9]; PANC1, time 24 h, Fig. S3B): 1.469 fold change and 1.617 fold change and 1.511 fold change | fold change BID full length vs Tubulin (PANC1 cells [9]; PANC1, time 24 h, Fig. S3B): 1.745 fold change and 2.178 fold change and 1.991 fold change | fold change MCL1 vs Tubulin (PANC1 cells [9]; PANC1, time 24 h, Fig. S3B): 1.279 fold change and 1.508 fold change and 1.299 fold change | fold change p-ERK vs Tubulin (PANC1 cells [9]; Time 1 h): 1.164 fold change and 1.13 fold change and 1.21 fold change | fold change p-JNK vs Tubulin (PANC1 cells [9]; Time 1 h): 1.373 fold change and 1.201 fold change and 1.17 fold change | fold change p-p38 vs Tubulin (PANC1 cells [9]; Time 1 h): 1.546 fold change and 1.183 fold change and 0.9863 fold change | fold change p-p53 vs Tubulin (PANC1 cells [9]; Time 1 h): 1.04 fold change and 1.08 fold change and 0.83 fold change | fold change p-ERK vs Tubulin (PANC1 cells [9]; Time 3 h): 0.6555 fold change and 1.708 fold change and 1.33 fold change | fold change p-p38 vs Tubulin (PANC1 cells [9]; Time 3 h): 0.9361 fold change and 0.959 fold change and 0.6722 fold change | fold change p-p53 vs Tubulin (PANC1 cells [9]; Time 3 h): 1.501 fold change and 1.122 fold change and 1.403 fold change | fold change p-ERK vs Tubulin (PANC1 cells [9]; Time 6 h): 0.4691 fold change and 2.127 fold change and 1.29 fold change | fold change p-JNK vs Tubulin (PANC1 cells [9]; Time 6 h): 0.7555 fold change and 0.4269 fold change and 0.7284 fold change | fold change p-p38 vs Tubulin (PANC1 cells [9]; Time 6 h): 0.8737 fold change and 0.5515 fold change and 0.5907 fold change | fold change p-p53 vs Tubulin (PANC1 cells [9]; Time 6 h): 2.227 fold change and 1.131 fold change and 2.015 fold change | fold change p-ERK vs Tubulin (PANC1 cells [9]; Time 24 h): 0.8571 fold change and 2.648 fold change and 1.55 fold change | fold change p-JNK vs Tubulin (PANC1 cells [9]; Time 24 h): 0.8188 fold change and 0.748 fold change and 1.253 fold change | fold change p-p38 vs Tubulin (PANC1 cells [9]; Time 24 h): 1.702 fold change and 0.3951 fold change and 0.5063 fold change | fold change p-p53 vs Tubulin (PANC1 cells [9]; Time 24 h): 2.03 fold change and 4.05 fold change and 2.63 fold change
